Measured values published in the OligoGym collection.
Values joined by “and” are separate entries in the source; they are usually repeats but may differ in a detail not shown here. Equal values may be shown once. After the bases stand the sugars from the 5' end (letter, count) and the backbone: PS all phosphorothioate, else s phosphorothioate and o phosphodiester by linkage. Methylation of C is not given here. e = 2'-O-(2-methoxyethyl) (MOE); l = locked nucleic acid (LNA); k = constrained ethyl (cEt); d = 2'-deoxy (DNA)

Key:
[1] = biological target: MYH7; settings: ASO, CC-2580, 5 µM
[2] = biological target: ANGPTL2; settings: ASO
[3] = biological target: KRAS; settings: ASO

Sequence	target mRNA inhibition [1]	target mRNA inhibition ([2]; 5 µM)	target mRNA inhibition ([2]; 25 µM)	other results
TCAGCTTGGCGATGATCT (sugars lddlddldlddddddlll, PS)	70% and 46%			
TGATGCGGTTGTAGGT (sugars l2 d12 l2, PS)		73.2%		
CCTTTTCACTCTCAATAT (sugars l3 d13 l2, PS)		36.8%	43.5%	
CAGCTTGGCGATGATCT (sugars lddlddddddddlldll, PS)	29% and 5%			
CAGCTTGGCGATGATCT (sugars lddllddddldddddll, PS)	23% and 2%			
CAGCTTGGCGATGATCT (sugars l1 d9 l4 d1 l2, PS)	-1% and -10%			
CAGCTTGGCGATGATCT (sugars ldldlddddddlddlll, PS)	38% and 29%			
GAACCATTTTGAGATTCC (sugars l3 d13 l2, PS)		56.6%	52%	
TGGGCATAGTGGGCAGA (sugars l1 d14 l2, PS)		58.9%	64%	
CAGCTTGGCGATGATCT (sugars l2 d11 l4, PS)	65% and 45%			
CAGCTTGGCGATGATCT (sugars l2 d12 l3, PS)	67% and 45%			
TTAACAGAGCCATCCAGG (sugars l1 d15 l2, PS)		24.9%	25.4%	
GCAAAGGTCAGAAACATC (sugars l3 d12 l3, PS)		28.8%	37.7%	
TAGTGGGCACAGTTTCC (sugars l1 d14 l2, PS)		21.2%	36.4%	
CAGCTTGGCGATGATCT (sugars ldldldddddddldlll, PS)	9% and 2%			
TGCTGGGGCACAATGAA (sugars l2 d12 l3, PS)		28.2%	2.72%	
TCAGCTTGGCGATGATCT (sugars ldlddldddddddlddll, PS)	31% and 17%			
TCAGCTTGGCGATGATCT (sugars ldlldldldddddddlll, PS)	30% and 26%			
CAGCTTGGCGATGATCT (sugars ldldlddldddddddll, PS)	28% and 3%			
CCAGCCGCAGCTTATA (sugars l1 d13 l2, PS)		21.8%	35.3%	
CAGCTTGGCGATGATCT (sugars lldlddddlddddddll, PS)	23% and -1%			
ACACCCAAGACTCAGAT (sugars l4 d11 l2, PS)		6.49%	5.75%	

Sequence	target mRNA inhibition [1]	target mRNA inhibition ([2]; 5 µM)	target mRNA inhibition ([2]; 25 µM)	other results
AGGGGCTATGACTATCC (sugars l1 d14 l2, PS)		41.3%	45.9%	
ACAAGCCAGTTGTATGT (sugars l1 d12 l4, PS)		58.2%	72.3%	
TGAAGGAAAGTAGGAGGGA (sugars l1 d15 l3, PS)		10.6%	16.5%	
AACCATTTTGAGATTCC (sugars l4 d11 l2, PS)		67.7%	81.3%	
CAGCTCATTGTTGAGCA (sugars l2 d13 l2, PS)		0.32%		
CAGCTTGGCGATGATCT (sugars lldddddddldldldll, PS)	1% and -1%			
CAGCTTGGCGATGATCT (sugars lddlldddddlldddll, PS)	15% and 12%			
TCAGCTTGGCGATGATCT (sugars lddldddddddlddldll, PS)	21%			
CAGCTTGGCGATGATCT (sugars lddlddldddddlddll, PS)	40% and 20%			
TCAGCTTGGCGATGATCT (sugars ldlddllddlddddddll, PS)	17% and 3%			
CTTGGCAATGATCTCATCC (sugars l2 d5 l1 d7 l4, PS)	69% and 45%			
CAGCTTGGCGATGATCT (sugars lddlldddddldlddll, PS)	8% and -2%			
CAGCTTGGCGATGATCT (sugars lddlllddlddddddll, PS)	12% and 3%			
TCAGCTTGGCGATGATCT (sugars ldlldddddddldlddll, PS)	35% and 24%			
CTTGGCAATGATCTCATCC (sugars ldddddldddldlddldll, PS)	31% and 22%			
TCAGCTTGGCGATGATCT (sugars lddlddlddddddlldll, PS)	12% and -5%			
CTTGGCAATGATCTCATCC (sugars ldddddddldllddlddll, PS)	43% and 24%			
TCAGCTTGGCGATGATCT (sugars llddlddddddldlddll, PS)	21% and 1%			
TTGATGATGCGGTTGTAGG (sugars l2 d15 l2, PS)		55.3%	67.3%	
AGTTCTGTTTGATCTTC (sugars l2 d11 l4, PS)		52.7%	69.2%	
GAACCATTTTGAGATTCCC (sugars l1 d16 l2, PS)		27.6%	7.84%	
TCAGCTTGGCGATGATCT (sugars lddldldlddddddldll, PS)	25% and 4%			

Sequence	target mRNA inhibition [1]	target mRNA inhibition ([2]; 5 µM)	target mRNA inhibition ([2]; 25 µM)	other results
CTTGGCAATGATCTCATCC (sugars lldddddddddldlddlll, PS)	52% and 34%			
CCAGGCAGTTTCTTATG (sugars l1 d13 l3, PS)		16.4%	25.8%	
ACAGGGAAAGAATTTGGGTC (sugars l1 d16 l3, PS)		44.4%	37.5%	
CTTGGCAATGATCTCATCC (sugars l4 d12 l3, PS)	73% and 58%			
AGGCCAACACTAACTCG (sugars l2 d13 l2, PS)		70.5%	78.8%	
AACCATTTTGAGATTCCC (sugars l3 d13 l2, PS)		40.2%	52.7%	
CTTGGCAATGATCTCATCC (sugars ldlddddddldlddlddll, PS)	48% and 33%			
CAGCTTGGCGATGATCT (sugars l2 d7 l1 d4 l3, PS)	18% and -5%			
CAGCTTGGCGATGATCT (sugars llddddddlddldldll, PS)	2% and 0%			
GCTGGAAAGAGGGATAGA (sugars l2 d14 l2, PS)		60.7%	66.2%	
CAGCTTGGCGATGATCT (sugars lldldldddldddddll, PS)	-1% and -7%			
TGTAGGTGCACTTGTC (sugars l2 d12 l2, PS)		28.5%	49.4%	
TTGATGATGCGGTTGTAGGT (sugars l1 d17 l2, PS)		41.3%	48.7%	
TCAGCTTGGCGATGATCT (sugars llddlddddddddlddll, PS)	35% and 16%			
CAGCTTGGCGATGATCT (sugars lldddddddlddlddll, PS)	19% and 5%			
TTGAGATTCCCCCAAAG (sugars l2 d11 l4, PS)		28.3%	41.2%	
CAGCTTGGCGATGATCT (sugars lddlddddddlddddll, PS)	21% and 4%			
GAGCCTTTACATGCCG (sugars l2 d12 l2, PS)		41%	66.8%	
CTTGGCAATGATCTCATCC (sugars llldddddddllddlddll, PS)	71% and 62%			
TCAGCTTGGCGATGATCT (sugars l2 d7 l1 d4 l4, PS)	36% and 34%			
CTTGGCAATGATCTCATCC (sugars lddddddlddllddlddll, PS)	34% and 17%			
TTGGACAACTAGGCAGCA (sugars l3 d13 l2, PS)		38.8%	60.3%	

Sequence	target mRNA inhibition [1]	target mRNA inhibition ([2]; 5 µM)	target mRNA inhibition ([2]; 25 µM)	other results
TCAGCTTGGCGATGATCT (sugars lldlddldddddddllll, PS)	36% and 11%			
TCAGCTTGGCGATGATCT (sugars l3 d11 l4, PS)	68% and 52%			
CTTGGCAATGATCTCATCC (sugars llddldddddddlldldll, PS)	-3% and -10%			
CAGGTGCTGGTACTTGTG (sugars l1 d15 l2, PS)		40.4%	54.2%	
CAGCTTGGCGATGATCT (sugars llddddddldddlddll, PS)	17% and -2%			
CTATCCTCTCCCAAACATG (sugars l1 d16 l2, PS)		16%	24.1%	
TCCAGGGTGGTGAACTG (sugars l2 d13 l2, PS)		25.1%	23.2%	
CTTGGCAATGATCTCATCC (sugars ldddddlldlddlddddll, PS)	30% and 22%			
CTTGGCAATGATCTCATCC (sugars ldddddddddldlddddll, PS)	45% and 22%			
CAGCTTGGCGATGATCT (sugars lldddldddddddldll, PS)	28% and 4%			
CAGCTTGGCGATGATCT (sugars lldddddddlddlldll, PS)	30% and 25%			
AGTTGATAGTTTATCTCC (sugars l2 d14 l2, PS)		51.7%	64.9%	
CAGCTTGGCGATGATCT (sugars ldldldldddddddlll, PS)	37% and 14%			
GAGTTGAAGGGAGGTGC (sugars l1 d14 l2, PS)		17.7%	-10.3%	
CAGCTTGGCGATGATCT (sugars llddddlddddldldll, PS)	15% and 5%			
CTTGGCAATGATCTCATCC (sugars llddddddldllddlddll, PS)	34% and 10%			
CTCCGGTAATGGCCC (sugars l1 d12 l2, PS)		-5%	15.6%	
TGGTTGATGATGCGGTTG (sugars l2 d14 l2, PS)		77.6%	86.1%	
AGCTCATTGTTGAGCAG (sugars l1 d13 l3, PS)		4.81%	13.2%	
CGGTTGTAGGTGGGTGG (sugars l1 d14 l2, PS)		21.1%	-3.3%	
CCATTCAAAGTTCACA (sugars kkddddddddddkeke, PS)				target mRNA inhibition ([3]; A431, 0.185 µM): 19%; target mRNA inhibition ([3]; A431, 0.556 µM): 32%; target mRNA inhibition ([3]; A431, 1.667 µM): 50%; target mRNA inhibition ([3]; A431, 2 µM): 63%; target mRNA inhibition ([3]; A431, 5 µM): 67%; target mRNA inhibition ([3]; NCI-H460, 0.037 µM): 54.7%
ATTAGTCTCCATTAGT (sugars k3 d10 k3, PS)				target mRNA inhibition ([3]; A431, 2 µM): 29%
